In PubChem BioAssay (NCI):
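Grown in 96-well plates, cells were treated for 48 hours with each compound at five concentrations. Insufficient inhibition: endpoint recorded as highest concentration tested. GI50 = concentration required for 50% inhibition of growth. TGI: total growth inhibition.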

Key:
Assay in all cases: NCI tumour cell line growth inhibition, 48 h; in the data active = GI50 below about 0.43 µM; inactive = the rest
MOLT-4 leukemia = test system: MOLT-4 leukemia
T-47D breast = test system: T-47D breast
ACHN renal = test system: ACHN renal
RXF 393 renal = test system: RXF 393 renal
SR leukemia = test system: SR leukemia
HCT-116 colon = test system: HCT-116 colon
HL-60(TB) leukemia = test system: HL-60(TB) leukemia
OVCAR-4 ovarian = test system: OVCAR-4 ovarian
HOP-92 NSCLC = test system: HOP-92 NSCLC
U251 CNS = test system: U251 CNS
NCI/ADR-RES ovarian = test system: NCI/ADR-RES ovarian
EKVX NSCLC = test system: EKVX NSCLC
SNB-19 CNS = test system: SNB-19 CNS
786-0 renal = test system: 786-0 renal
NCI-H226 lung = test system: NCI-H226 lung
OVCAR-5 ovarian = test system: OVCAR-5 ovarian
HOP-62 NSCLC = test system: HOP-62 NSCLC
OVCAR-8 ovarian = test system: OVCAR-8 ovarian
NCI-H23 lung = test system: NCI-H23 lung
MALME-3M melanoma = test system: MALME-3M melanoma
A549 NSCLC = test system: A549 NSCLC
SNB-75 CNS = test system: SNB-75 CNS
SK-MEL-5 melanoma = test system: SK-MEL-5 melanoma
HCT-15 colon = test system: HCT-15 colon
COLO 205 colon = test system: COLO 205 colon
SK-MEL-2 melanoma = test system: SK-MEL-2 melanoma

ClC(Cl)c1nc(-c2ccco2)n2nc(-c3ccccc3)cc2n1
3.64 µM: TGI (HOP-92 NSCLC)
> 100 µM: TGI (MOLT-4 leukemia) | TGI (T-47D breast) | TGI (SR leukemia) | TGI (OVCAR-4 ovarian) | TGI (NCI/ADR-RES ovarian) | TGI (SNB-19 CNS) | TGI (786-0 renal) | TGI (NCI-H226 lung) | TGI (OVCAR-5 ovarian) | TGI (OVCAR-8 ovarian) | TGI (NCI-H23 lung) | TGI (MALME-3M melanoma) | TGI (SK-MEL-5 melanoma) | TGI (HCT-15 colon) | TGI (SK-MEL-2 melanoma)
4.5 µM: TGI (HOP-62 NSCLC)
3.58 µM: TGI (COLO 205 colon)
5.18 µM: TGI (EKVX NSCLC)
active: GI50 (ACHN renal) 0.365 µM | GI50 (HL-60(TB) leukemia) 0.304 µM | GI50 (U251 CNS) 0.343 µM | GI50 (SNB-75 CNS) 0.219 µM
6.16 µM: TGI (A549 NSCLC)
1.69 µM: TGI (HL-60(TB) leukemia)
> 39.3 µM: TGI (HCT-116 colon)
3.07 µM: TGI (SNB-75 CNS)
2.33 µM: TGI (U251 CNS)
inactive: GI50 (MOLT-4 leukemia) > 100 µM | GI50 (T-47D breast) 1.47 µM | GI50 (RXF 393 renal) 0.528 µM | GI50 (SR leukemia) > 60.2 µM | GI50 (HCT-116 colon) 0.639 µM | GI50 (OVCAR-4 ovarian) 5.45 µM | GI50 (HOP-92 NSCLC) 0.535 µM | GI50 (NCI/ADR-RES ovarian) 0.801 µM | GI50 (EKVX NSCLC) 1.56 µM | GI50 (SNB-19 CNS) 0.998 µM | GI50 (786-0 renal) > 23.5 µM | GI50 (NCI-H226 lung) > 100 µM | GI50 (OVCAR-5 ovarian) 2.02 µM | GI50 (HOP-62 NSCLC) 0.679 µM | GI50 (OVCAR-8 ovarian) 1.62 µM | GI50 (NCI-H23 lung) 9.81 µM | GI50 (MALME-3M melanoma) > 100 µM | GI50 (A549 NSCLC) 1.56 µM | GI50 (SK-MEL-5 melanoma) > 100 µM | GI50 (HCT-15 colon) 0.617 µM | GI50 (COLO 205 colon) 1.15 µM | GI50 (SK-MEL-2 melanoma) > 100 µM
2.03 µM: TGI (ACHN renal)
76.4 µM: TGI (RXF 393 renal)
